In the OligoGym collection:
Values joined by “and” are separate entries in the source; they are usually repeats but may differ in a detail not shown here. Identical values can stand only once. HELM strings list units from the 5' end as sugar, base in round brackets, then linkage (d deoxyribose, r ribose, m 2'-O-methyl, p phosphodiester). Methylation of C is not given here. [moe] = 2'-O-(2-methoxyethyl) (MOE); [cEt] = constrained ethyl (cEt); [sp] = phosphorothioate linkage

Biological target: HBV
Details: ASO

Substance	target mRNA inhibition (HepG2, 0.07 µM)	other results
RNA1{[moe](C)[sp].[moe](T)[sp].[moe](G)[sp].[moe](G)[sp].[moe](A)[sp].d(G)[sp].d(C)[sp].d(C)[sp].d(A)[sp].d(C)[sp].d(C)[sp].d(A)[sp].d(G)[sp].d(C)[sp].[moe](A)[sp].[moe](G)[sp].[moe](G)}$$$$V2.0	42% and 44%	
RNA1{[moe](A)[sp].[cEt](T)[sp].[cEt](T)[sp].d(T)[sp].d(A)[sp].d(T)[sp].d(G)[sp].d(C)[sp].d(C)[sp].d(T)[sp].d(A)[sp].d(C)[sp].d(A)[sp].[cEt](G)[sp].[cEt](C)[sp].[moe](C)}$$$$V2.0	57% and 46%	
RNA1{[moe](G)[sp].[moe](A)[sp].[moe](A)[sp].[moe](C)[sp].[moe](C)[sp].d(A)[sp].d(C)[sp].d(T)[sp].d(G)[sp].d(A)[sp].d(A)[sp].d(C)[sp].d(A)[sp].d(A)[sp].[moe](A)[sp].[moe](T)}$$$$V2.0	34% and 36%	
RNA1{[moe](G)[sp].[moe](T)[sp].[moe](G)[sp].[moe](C)[sp].d(A)[sp].d(G)[sp].d(A)[sp].d(G)[sp].d(G)[sp].d(T)[sp].d(G)[sp].d(A)[sp].d(A)[sp].[moe](G)[sp].[moe](C)[sp].[moe](G)[sp].[moe](A)}$$$$V2.0	62% and 54%	
RNA1{[moe](A)[sp].[moe](G)[sp].[moe](G)[sp].d(C)[sp].d(A)[sp].d(T)[sp].d(A)[sp].d(G)[sp].d(C)[sp].d(A)[sp].d(G)[sp].d(C)[sp].[moe](A)[sp].[moe](G)[sp].[moe](G)[sp].[moe](A)[sp].[moe](T)}$$$$V2.0	55% and 53%	
RNA1{[moe](C)[sp].[moe](A)[sp].[moe](G)[sp].[moe](A)[sp].d(G)[sp].d(G)[sp].d(T)[sp].d(G)[sp].d(A)[sp].d(A)[sp].d(G)[sp].d(C)[sp].d(G)[sp].[moe](A)[sp].[moe](A)[sp].[moe](G)[sp].[moe](T)}$$$$V2.0	60% and 45%	
RNA1{[moe](A)[sp].[moe](A)[sp].[moe](C)[sp].[moe](C)[sp].d(A)[sp].d(C)[sp].d(T)[sp].d(G)[sp].d(A)[sp].d(A)[sp].d(C)[sp].d(A)[sp].d(A)[sp].[moe](A)[sp].[moe](T)[sp].[moe](G)[sp].[moe](G)}$$$$V2.0	57% and 55%	
RNA1{[moe](A)[sp].[cEt](A)[sp].d(C)[sp].d(T)[sp].d(G)[sp].d(G)[sp].d(A)[sp].d(G)[sp].d(C)[sp].d(C)[sp].d(A)[sp].d(C)[sp].[cEt](C)[sp].[moe](A)[sp].[cEt](G)[sp].[moe](C)}$$$$V2.0	65% and 53%	
RNA1{[moe](A)[sp].[cEt](G)[sp].d(G)[sp].d(C)[sp].d(A)[sp].d(T)[sp].d(A)[sp].d(G)[sp].d(C)[sp].d(A)[sp].d(G)[sp].d(C)[sp].[cEt](A)[sp].[moe](G)[sp].[cEt](G)[sp].[moe](A)}$$$$V2.0	66% and 52%	
RNA1{[moe](G)[sp].[moe](C)[sp].d(A)[sp].d(G)[sp].d(T)[sp].d(A)[sp].d(T)[sp].d(G)[sp].d(G)[sp].d(A)[sp].d(T)[sp].[moe](C)[sp].[moe](G)[sp].[moe](G)[sp].[moe](C)[sp].[moe](A)}$$$$V2.0	76% and 73%	target mRNA inhibition (HepG2, 0.0092593 µM): 2%; target mRNA inhibition (HepG2, 0.0277778 µM): 25%; target mRNA inhibition (HepG2, 0.0833333 µM): 44%; target mRNA inhibition (HepG2, 0.25 µM): 77%
RNA1{[moe](C)[sp].[moe](C)[sp].[moe](A)[sp].d(C)[sp].d(T)[sp].d(G)[sp].d(A)[sp].d(A)[sp].d(C)[sp].d(A)[sp].d(A)[sp].d(A)[sp].d(T)[sp].[cEt](G)[sp].[cEt](G)[sp].[cEt](C)}$$$$V2.0	77% and 78%	
RNA1{[moe](G)[sp].[moe](A)[sp].[moe](G)[sp].[moe](A)[sp].[moe](A)[sp].[moe](G)[sp].d(T)[sp].d(C)[sp].d(C)[sp].d(A)[sp].d(C)[sp].d(C)[sp].d(A)[sp].d(C)[sp].d(G)[sp].[moe](A)[sp].[moe](G)}$$$$V2.0	27% and 23%	
